From the kinase profiling compilation of Christmann-Franck et al. (2016)

Columns and labels:
Test in all cases: KINOMEscan competition binding
Settings in all cases: compound 10.0 µM
[1] = biological target: ABL1 (human) (UniProt P00519)
[2] = test system: ABL1 (human), P00519 [E255K]
[3] = test system: ABL1 (human), P00519 [F317L]
[4] = biological target: ACVR1B (human) (UniProt P36896)
[5] = biological target: ADCK3 (human) (UniProt Q8NI60)
[6] = biological target: AXL (human) (UniProt P30530)
[7] = biological target: CAMK1D (human) (UniProt Q8IU85)
[8] = biological target: CAMK4 (human) (UniProt Q16566)
[9] = biological target: CDK3 (human) (UniProt Q00526)
[10] = biological target: CDK5 (human) (UniProt Q00535)
[11] = biological target: CSK (human) (UniProt P41240)
[12] = biological target: CSNK1A1L (human) (UniProt Q8N752)
[13] = biological target: DDR1 (human) (UniProt Q08345)
[14] = biological target: EPHA1 (human) (UniProt P21709)
[15] = biological target: EPHA3 (human) (UniProt P29320)
[16] = biological target: EPHA8 (human) (UniProt P29322)
[17] = biological target: EPHB1 (human) (UniProt P54762)
[18] = biological target: FGFR1 (human) (UniProt P11362)
[19] = biological target: FGFR3 (human) (UniProt P22607)
[20] = biological target: GSK3B (human) (UniProt P49841)
[21] = biological target: IKBKB (human) (UniProt O14920)
[22] = biological target: IKBKE (human) (UniProt Q14164)
[23] = biological target: LCK (human) (UniProt P06239)
[24] = biological target: MAP3K3 (human) (UniProt Q99759)
[25] = biological target: MAP3K9 (human) (UniProt P80192)
[26] = biological target: MAP4K3 (human) (UniProt Q8IVH8)
[27] = biological target: MAPK11 (human) (UniProt Q15759)
[28] = biological target: MAPKAPK5 (human) (UniProt Q8IW41)
[29] = biological target: MYO3B (human) (UniProt Q8WXR4)
[30] = biological target: NEK6 (human) (UniProt Q9HC98)
[31] = biological target: NTRK1 (human) (UniProt P04629)
[32] = biological target: PDPK1 (human) (UniProt O15530)
[33] = biological target: PIK3C2B (human) (UniProt O00750)
[34] = biological target: PIK3CB (human) (UniProt P42338)
[35] = biological target: PLK3 (human) (UniProt Q9H4B4)
[36] = biological target: PRKCD (human) (UniProt Q05655)
[37] = biological target: RPS6KA2 KD1 (human) (UniProt Q15349)
[38] = biological target: STK36 (human) (UniProt Q9NRP7)
[39] = biological target: STK4 (human) (UniProt Q13043)
[40] = biological target: TLK2 (human) (UniProt Q86UE8)
[41] = biological target: TXK (human) (UniProt P42681)
[42] = biological target: WEE1 (human) (UniProt P30291)
Sequence of WEE1 (human) (P30291 whole entry, looked up): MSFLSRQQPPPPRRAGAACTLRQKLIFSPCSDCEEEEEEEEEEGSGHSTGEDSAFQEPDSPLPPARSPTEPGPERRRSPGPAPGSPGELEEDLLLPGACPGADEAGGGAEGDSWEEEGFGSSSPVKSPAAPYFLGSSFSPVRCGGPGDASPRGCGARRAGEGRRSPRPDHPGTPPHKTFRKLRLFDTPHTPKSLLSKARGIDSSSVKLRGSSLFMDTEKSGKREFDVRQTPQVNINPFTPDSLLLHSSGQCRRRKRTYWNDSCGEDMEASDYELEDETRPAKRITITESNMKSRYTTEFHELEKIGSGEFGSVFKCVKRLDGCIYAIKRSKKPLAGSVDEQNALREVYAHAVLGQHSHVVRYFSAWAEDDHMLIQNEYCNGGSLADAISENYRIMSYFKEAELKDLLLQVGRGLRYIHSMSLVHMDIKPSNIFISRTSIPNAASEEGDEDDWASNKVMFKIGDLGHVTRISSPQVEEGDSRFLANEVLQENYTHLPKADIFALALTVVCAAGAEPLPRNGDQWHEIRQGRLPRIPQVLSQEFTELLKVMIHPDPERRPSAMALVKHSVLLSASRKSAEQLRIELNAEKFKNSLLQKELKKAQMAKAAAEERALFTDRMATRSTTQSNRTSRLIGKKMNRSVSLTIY

Sequence of CDK5 (human) (Q00535 whole entry, looked up): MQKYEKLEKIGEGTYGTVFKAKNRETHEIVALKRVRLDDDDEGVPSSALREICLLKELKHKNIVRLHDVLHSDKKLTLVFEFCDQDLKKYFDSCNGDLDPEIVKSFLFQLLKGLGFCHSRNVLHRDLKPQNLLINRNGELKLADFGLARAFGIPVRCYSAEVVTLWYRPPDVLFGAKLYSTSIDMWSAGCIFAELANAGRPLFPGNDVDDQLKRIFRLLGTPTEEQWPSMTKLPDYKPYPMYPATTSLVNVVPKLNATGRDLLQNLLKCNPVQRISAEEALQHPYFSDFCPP
Sequence of MAP3K3 (human) (Q99759 whole entry, looked up): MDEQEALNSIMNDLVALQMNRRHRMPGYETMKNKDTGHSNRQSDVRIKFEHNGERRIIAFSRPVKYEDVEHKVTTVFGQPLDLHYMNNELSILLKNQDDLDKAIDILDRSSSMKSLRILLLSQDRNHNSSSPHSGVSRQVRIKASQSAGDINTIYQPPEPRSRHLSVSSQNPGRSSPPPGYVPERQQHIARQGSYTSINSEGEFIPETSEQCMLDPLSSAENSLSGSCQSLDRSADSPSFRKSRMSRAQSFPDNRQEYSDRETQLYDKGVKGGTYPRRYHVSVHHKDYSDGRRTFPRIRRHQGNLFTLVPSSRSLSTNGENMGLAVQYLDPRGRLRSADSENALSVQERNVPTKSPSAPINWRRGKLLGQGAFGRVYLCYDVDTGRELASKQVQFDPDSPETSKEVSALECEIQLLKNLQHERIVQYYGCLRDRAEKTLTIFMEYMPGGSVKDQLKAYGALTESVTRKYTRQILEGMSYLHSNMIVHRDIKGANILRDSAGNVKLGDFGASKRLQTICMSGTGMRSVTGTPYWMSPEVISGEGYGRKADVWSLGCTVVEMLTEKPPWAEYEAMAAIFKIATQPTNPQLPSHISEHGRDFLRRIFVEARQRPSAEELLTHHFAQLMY
Sequence of MAPK11 (human) (Q15759 whole entry, looked up): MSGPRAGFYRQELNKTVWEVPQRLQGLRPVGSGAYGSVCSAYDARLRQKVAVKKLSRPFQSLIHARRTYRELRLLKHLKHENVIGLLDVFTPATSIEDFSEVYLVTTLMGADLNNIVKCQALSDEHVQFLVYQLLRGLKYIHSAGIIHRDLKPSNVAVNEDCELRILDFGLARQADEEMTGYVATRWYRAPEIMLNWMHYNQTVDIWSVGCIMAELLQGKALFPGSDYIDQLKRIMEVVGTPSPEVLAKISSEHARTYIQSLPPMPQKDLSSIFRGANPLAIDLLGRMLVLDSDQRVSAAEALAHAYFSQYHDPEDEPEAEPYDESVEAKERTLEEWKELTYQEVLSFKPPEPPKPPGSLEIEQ
Sequence of PIK3C2B (human) (O00750 whole entry, looked up): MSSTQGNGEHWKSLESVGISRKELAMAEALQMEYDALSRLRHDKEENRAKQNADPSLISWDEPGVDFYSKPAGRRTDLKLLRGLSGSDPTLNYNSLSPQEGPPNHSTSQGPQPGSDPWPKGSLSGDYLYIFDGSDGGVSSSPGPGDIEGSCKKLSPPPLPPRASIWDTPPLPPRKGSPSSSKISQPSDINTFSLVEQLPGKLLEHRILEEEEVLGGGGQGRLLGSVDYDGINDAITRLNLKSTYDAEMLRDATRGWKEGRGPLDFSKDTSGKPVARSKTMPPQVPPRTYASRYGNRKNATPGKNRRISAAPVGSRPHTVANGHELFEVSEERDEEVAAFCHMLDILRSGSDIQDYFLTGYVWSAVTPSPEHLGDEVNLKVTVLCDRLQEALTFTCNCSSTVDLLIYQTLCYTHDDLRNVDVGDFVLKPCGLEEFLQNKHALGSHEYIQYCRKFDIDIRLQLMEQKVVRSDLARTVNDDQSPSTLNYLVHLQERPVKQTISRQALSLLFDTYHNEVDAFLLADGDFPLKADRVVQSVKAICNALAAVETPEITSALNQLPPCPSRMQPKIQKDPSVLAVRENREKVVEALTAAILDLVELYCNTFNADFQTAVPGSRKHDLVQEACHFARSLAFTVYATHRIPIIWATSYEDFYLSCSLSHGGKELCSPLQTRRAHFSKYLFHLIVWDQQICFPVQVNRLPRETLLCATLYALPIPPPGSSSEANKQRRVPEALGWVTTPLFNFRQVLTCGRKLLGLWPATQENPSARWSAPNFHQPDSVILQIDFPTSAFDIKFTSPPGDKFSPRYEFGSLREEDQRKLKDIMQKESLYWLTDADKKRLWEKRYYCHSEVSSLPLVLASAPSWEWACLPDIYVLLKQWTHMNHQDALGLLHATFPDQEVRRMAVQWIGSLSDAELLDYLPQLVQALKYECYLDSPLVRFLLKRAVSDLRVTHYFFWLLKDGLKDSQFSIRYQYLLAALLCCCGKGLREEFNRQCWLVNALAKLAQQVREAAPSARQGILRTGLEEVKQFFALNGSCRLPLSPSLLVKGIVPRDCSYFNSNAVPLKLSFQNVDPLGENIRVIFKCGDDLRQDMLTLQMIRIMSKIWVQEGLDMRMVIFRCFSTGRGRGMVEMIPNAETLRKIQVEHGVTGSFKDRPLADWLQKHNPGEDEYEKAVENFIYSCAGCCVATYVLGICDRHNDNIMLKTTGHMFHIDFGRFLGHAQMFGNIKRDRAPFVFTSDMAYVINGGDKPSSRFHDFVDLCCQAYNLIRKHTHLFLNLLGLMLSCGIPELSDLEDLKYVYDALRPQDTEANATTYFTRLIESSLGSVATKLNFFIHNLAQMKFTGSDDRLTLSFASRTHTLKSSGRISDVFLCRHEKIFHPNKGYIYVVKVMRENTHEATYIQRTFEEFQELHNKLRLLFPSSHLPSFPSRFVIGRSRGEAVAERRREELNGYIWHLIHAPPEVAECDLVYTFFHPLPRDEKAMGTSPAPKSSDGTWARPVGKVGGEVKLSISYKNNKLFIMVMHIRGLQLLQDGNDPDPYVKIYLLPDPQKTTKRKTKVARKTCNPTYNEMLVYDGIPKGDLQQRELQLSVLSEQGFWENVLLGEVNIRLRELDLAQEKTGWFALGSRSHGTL
Sequence of AXL (human) (P30530 whole entry, looked up): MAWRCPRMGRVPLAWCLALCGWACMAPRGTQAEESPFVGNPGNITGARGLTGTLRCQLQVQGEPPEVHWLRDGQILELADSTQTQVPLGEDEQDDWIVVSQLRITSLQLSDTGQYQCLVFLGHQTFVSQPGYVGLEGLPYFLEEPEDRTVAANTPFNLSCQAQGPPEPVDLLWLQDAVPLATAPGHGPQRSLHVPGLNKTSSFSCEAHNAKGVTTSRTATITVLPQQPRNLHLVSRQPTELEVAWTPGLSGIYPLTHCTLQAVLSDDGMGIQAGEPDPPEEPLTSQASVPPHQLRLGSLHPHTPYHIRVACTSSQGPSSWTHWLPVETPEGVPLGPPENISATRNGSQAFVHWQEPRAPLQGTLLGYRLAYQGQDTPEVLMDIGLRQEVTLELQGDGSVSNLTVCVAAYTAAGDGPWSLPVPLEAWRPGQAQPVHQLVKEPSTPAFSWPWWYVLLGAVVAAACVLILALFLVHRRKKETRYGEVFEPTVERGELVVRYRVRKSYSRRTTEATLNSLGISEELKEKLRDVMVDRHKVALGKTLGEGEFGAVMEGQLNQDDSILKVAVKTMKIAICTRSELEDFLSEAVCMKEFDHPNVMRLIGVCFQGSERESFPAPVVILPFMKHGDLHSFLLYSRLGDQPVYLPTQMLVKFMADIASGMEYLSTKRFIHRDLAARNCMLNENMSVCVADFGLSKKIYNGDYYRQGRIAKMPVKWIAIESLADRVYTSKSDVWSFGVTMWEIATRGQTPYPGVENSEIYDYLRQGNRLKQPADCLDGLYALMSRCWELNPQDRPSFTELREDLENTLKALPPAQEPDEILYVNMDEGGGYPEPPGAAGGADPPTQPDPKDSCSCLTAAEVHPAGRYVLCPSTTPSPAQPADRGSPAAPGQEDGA
Sequence of LCK (human) (P06239 whole entry, looked up): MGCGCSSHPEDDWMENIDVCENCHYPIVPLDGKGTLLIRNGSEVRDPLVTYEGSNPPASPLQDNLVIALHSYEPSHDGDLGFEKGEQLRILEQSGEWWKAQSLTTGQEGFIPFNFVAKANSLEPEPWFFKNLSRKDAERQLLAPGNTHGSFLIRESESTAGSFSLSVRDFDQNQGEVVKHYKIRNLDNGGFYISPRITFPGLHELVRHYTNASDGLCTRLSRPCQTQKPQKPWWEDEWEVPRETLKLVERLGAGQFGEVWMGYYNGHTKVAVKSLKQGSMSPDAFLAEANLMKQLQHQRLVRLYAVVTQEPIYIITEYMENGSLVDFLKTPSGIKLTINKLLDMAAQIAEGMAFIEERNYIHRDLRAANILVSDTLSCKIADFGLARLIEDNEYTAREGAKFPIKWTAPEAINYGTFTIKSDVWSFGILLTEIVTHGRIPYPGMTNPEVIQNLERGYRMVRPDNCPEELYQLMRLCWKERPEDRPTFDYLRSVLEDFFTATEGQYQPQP

`CN1CCN(c2ccc(C(=O)Nc3ncc4c(n3)N(C)c3ccccc3C(=O)N4C)cc2)CC1` was tested, and the kinase still bound, per cent of control [1] was 85%, the kinase still bound, per cent of control [2] was 100% and the kinase still bound, per cent of control [3] was 83%. For the same compound, the kinase still bound, per cent of control [4] was 100%, the kinase still bound, per cent of control [5] was 100% and the kinase still bound, per cent of control [6] was 100%. It also gave a kinase still bound, per cent of control [7] of 100%, a kinase still bound, per cent of control [8] of 100% and a kinase still bound, per cent of control [9] of 100%. For the same compound, the kinase still bound, per cent of control [10] was 100%, the kinase still bound, per cent of control [11] was 100% and the kinase still bound, per cent of control [12] was 77%. For the same compound, the kinase still bound, per cent of control [13] was 100%, the kinase still bound, per cent of control [14] was 100% and the kinase still bound, per cent of control [15] was 100%. For the same compound, the kinase still bound, per cent of control [16] was 92%, the kinase still bound, per cent of control [17] was 100% and the kinase still bound, per cent of control [18] was 100%. It also gave a kinase still bound, per cent of control [19] of 100%, a kinase still bound, per cent of control [20] of 79% and a kinase still bound, per cent of control [21] of 100%. The kinase still bound, per cent of control [22] was 100%, the kinase still bound, per cent of control [23] was 100% and the kinase still bound, per cent of control [24] was 100%. It also gave a kinase still bound, per cent of control [25] of 100%, a kinase still bound, per cent of control [26] of 100% and a kinase still bound, per cent of control [27] of 100%. For the same compound, the kinase still bound, per cent of control [28] was 63%, the kinase still bound, per cent of control [29] was 93% and the kinase still bound, per cent of control [30] was 100%. It also gave a kinase still bound, per cent of control [31] of 82%, a kinase still bound, per cent of control [32] of 100% and a kinase still bound, per cent of control [33] of 99%. The kinase still bound, per cent of control [34] was 100%, the kinase still bound, per cent of control [35] was 100% and the kinase still bound, per cent of control [36] was 100%. The kinase still bound, per cent of control [37] was 100%, the kinase still bound, per cent of control [38] was 100% and the kinase still bound, per cent of control [39] was 93%. It also gave a kinase still bound, per cent of control [40] of 100%, a kinase still bound, per cent of control [41] of 100% and a kinase still bound, per cent of control [42] of 100%.
